Measured values from ChEMBL document CHEMBL1201862, “PubChem BioAssay data set” (2004).
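48-hour exposure; five concentrations; linearly interpolated endpoints. Here, GI50 denotes the concentration required for 50% inhibition of growth.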 Activity calls are given as the source filed them. Cut-off read from the data, not from the text of the source: active = GI50 up to about 1.1 µM and inactive = higher.

Legend:
Experiment in all cases: growth of human tumour cells (NCI), 48 h
DMS-273 = tested on: DMS-273
CCRF-CEM = tested on: CCRF-CEM
SF-268 = tested on: SF-268
A549 = tested on: A549
HT-29 = tested on: HT-29
RXF 631 = tested on: RXF 631
XF498 = tested on: XF498
CAKI-1 = tested on: CAKI-1
EKVX = tested on: EKVX
OVCAR-3 = tested on: OVCAR-3
SK-OV-3 = tested on: SK-OV-3
SK-MEL-2 = tested on: SK-MEL-2
A498 = tested on: A498
LOX IMVI = tested on: LOX IMVI
SF-295 = tested on: SF-295
KM12 = tested on: KM12
786-0 = tested on: 786-0
SK-MEL-28 = tested on: SK-MEL-28
M14 = tested on: M14
ACHN = tested on: ACHN
TK-10 = tested on: TK-10
HOP-62 = tested on: HOP-62
HOP-18 = tested on: HOP-18
HCC 2998 = tested on: HCC 2998
K562 = tested on: K562
MOLT-4 = tested on: MOLT-4
SNB-75 = tested on: SNB-75
U-251 = tested on: U-251
RPMI-8226 = tested on: RPMI-8226
HCT-116 = tested on: HCT-116
IGROV-1 = tested on: IGROV-1
DLD-1 = tested on: DLD-1
UACC-257 = tested on: UACC-257
NCI-H23 = tested on: NCI-H23
SN12C = tested on: SN12C
COLO 205 = tested on: COLO 205
SF-539 = tested on: SF-539
NCI-H522 = tested on: NCI-H522
OVCAR-8 = tested on: OVCAR-8
SNB-78 = tested on: SNB-78
M19-MEL = tested on: M19-MEL
RXF 393 = tested on: RXF 393
HOP-92 = tested on: HOP-92
Malme-3M = tested on: Malme-3M
UO-31 = tested on: UO-31
HL-60 = tested on: HL-60
LXFL 529 = tested on: LXFL 529
NCI-H460 = tested on: NCI-H460
OVCAR-5 = tested on: OVCAR-5
UACC-62 = tested on: UACC-62
OVCAR-4 = tested on: OVCAR-4
SNB-19 = tested on: SNB-19
SK-MEL-5 = tested on: SK-MEL-5
SW-620 = tested on: SW-620
KM-20L2 = tested on: KM-20L2
HCT-15 = tested on: HCT-15
DMS-114 = tested on: DMS-114
NCI-H226 = tested on: NCI-H226

## Cc1cc(C)nc(NS(=O)(=O)c2ccc(NC(=O)c3cccc4c(Nc5ccc(S(=O)(=O)N=C(N)N)cc5)c5ccccc5nc34)cc2)n1
DMS-273
  GI50: 19.7 µM (inactive)
CCRF-CEM
  GI50: 45.6 µM (inactive)
SF-268
  GI50: 22.5 µM (inactive)
A549
  GI50: 62.5 µM (inactive)
HT-29
  GI50: 37.1 µM (inactive)
RXF 631
  GI50: 27.3 µM (inactive)
XF498
  GI50: > 100 µM (inactive)
CAKI-1
  GI50: 20.5 µM (inactive)
EKVX
  GI50: 35 µM (inactive)
OVCAR-3
  GI50: 10.5 µM (inactive)
SK-OV-3
  GI50: > 100 µM (inactive)
SK-MEL-2
  GI50: 52.8 µM (inactive)
A498
  GI50: > 100 µM (inactive)
LOX IMVI
  GI50: 39.5 µM (inactive)
SF-295
  GI50: 27.4 µM (inactive)
KM12
  GI50: 6.17 µM (inactive)
786-0
  GI50: 30.3 µM (inactive)
SK-MEL-28
  GI50: 33.4 µM (inactive)
M14
  GI50: 94.6 µM (inactive)
ACHN
  GI50: 47.1 µM (inactive)
TK-10
  GI50: 34.8 µM (inactive)
HOP-62
  GI50: 37.8 µM (inactive)
HOP-18
  GI50: > 100 µM (inactive)
HCC 2998
  GI50: 4.85 µM (inactive)
K562
  GI50: 7.6 µM (inactive)
MOLT-4
  GI50: 32.8 µM (inactive)
SNB-75
  GI50: 38 µM (inactive)
U-251
  GI50: 33.9 µM (inactive)
RPMI-8226
  GI50: 15.1 µM (inactive)
HCT-116
  GI50: 32.4 µM (inactive)
IGROV-1
  GI50: 40.4 µM (inactive)
DLD-1
  GI50: 7.62 µM (inactive)
UACC-257
  GI50: 24.7 µM (inactive)
NCI-H23
  GI50: 40 µM (inactive)
SN12C
  GI50: 50.7 µM (inactive)
COLO 205
  GI50: 37.9 µM (inactive)
SF-539
  GI50: 17.3 µM (inactive)
NCI-H522
  GI50: 44.3 µM (inactive)
OVCAR-8
  GI50: 7.94 µM (inactive)
SNB-78
  GI50: 8.3 µM (inactive)
M19-MEL
  GI50: 22.1 µM (inactive)
RXF 393
  GI50: 15.6 µM (inactive)
HOP-92
  GI50: 19.9 µM (inactive)
Malme-3M
  GI50: > 100 µM (inactive)
UO-31
  GI50: 46.6 µM (inactive)
HL-60
  GI50: 5.56 µM (inactive)
LXFL 529
  GI50: 3.88 µM (inactive)
NCI-H460
  GI50: 83.6 µM (inactive)
OVCAR-5
  GI50: > 100 µM (inactive)
UACC-62
  GI50: 29.9 µM (inactive)
OVCAR-4
  GI50: 14.5 µM (inactive)
SNB-19
  GI50: 33.1 µM (inactive)
SK-MEL-5
  GI50: 54.8 µM (inactive)
SW-620
  GI50: 9.48 µM (inactive)
KM-20L2
  GI50: 34.2 µM (inactive)
HCT-15
  GI50: 30.1 µM

## COc1ccc(C(=O)C(c2ccc(OC)cc2)C2(O)C(=O)Nc3c2ccc(Cl)c3C)cc1 (stereo not drawn)
CCRF-CEM
  GI50: > 100 µM (inactive)
SF-268
  GI50: > 100 µM (inactive)
A549
  GI50: > 100 µM (inactive)
HT-29
  GI50: > 100 µM (inactive)
RXF 631
  GI50: 34.9 µM (inactive)
EKVX
  GI50: > 100 µM (inactive)
OVCAR-3
  GI50: > 100 µM (inactive)
SK-OV-3
  GI50: > 100 µM (inactive)
SK-MEL-2
  GI50: > 100 µM (inactive)
A498
  GI50: > 100 µM (inactive)
DMS-114
  GI50: > 100 µM (inactive)
LOX IMVI
  GI50: 91.2 µM (inactive)
SF-295
  GI50: > 100 µM (inactive)
KM12
  GI50: > 100 µM (inactive)
786-0
  GI50: > 100 µM (inactive)
SK-MEL-28
  GI50: > 100 µM (inactive)
NCI-H226
  GI50: > 100 µM (inactive)
M14
  GI50: > 100 µM (inactive)
ACHN
  GI50: > 100 µM (inactive)
TK-10
  GI50: > 100 µM (inactive)
HOP-62
  GI50: > 100 µM (inactive)
HOP-18
  GI50: 58.9 µM (inactive)
HCC 2998
  GI50: > 100 µM (inactive)
K562
  GI50: > 100 µM (inactive)
MOLT-4
  GI50: > 100 µM (inactive)
SNB-75
  GI50: 37.3 µM (inactive)
U-251
  GI50: > 100 µM (inactive)
RPMI-8226
  GI50: > 100 µM (inactive)
HCT-116
  GI50: > 100 µM (inactive)
IGROV-1
  GI50: > 100 µM (inactive)
UACC-257
  GI50: 92.9 µM (inactive)
NCI-H23
  GI50: > 100 µM (inactive)
SN12C
  GI50: > 100 µM (inactive)
COLO 205
  GI50: > 100 µM (inactive)
NCI-H522
  GI50: > 100 µM (inactive)
OVCAR-8
  GI50: > 100 µM (inactive)
SNB-78
  GI50: > 100 µM (inactive)
M19-MEL
  GI50: > 100 µM (inactive)
RXF 393
  GI50: 94.2 µM (inactive)
Malme-3M
  GI50: > 100 µM (inactive)
UO-31
  GI50: 64.6 µM (inactive)
HL-60
  GI50: > 100 µM (inactive)
LXFL 529
  GI50: > 100 µM (inactive)
NCI-H460
  GI50: > 100 µM (inactive)
OVCAR-5
  GI50: > 100 µM (inactive)
UACC-62
  GI50: > 100 µM (inactive)
OVCAR-4
  GI50: > 100 µM (inactive)
SNB-19
  GI50: > 100 µM (inactive)
SK-MEL-5
  GI50: > 100 µM (inactive)
SW-620
  GI50: > 100 µM (inactive)
KM-20L2
  GI50: > 100 µM (inactive)
HCT-15
  GI50: > 100 µM
